Test: Subcutaneous trials in males: vomiting and tolerability
Type: in vivo, human
Conditions: intramuscular administration, males

Cc1nccn1CC1CCc2c(c3ccccc3n2C)C1=O (stereo not shown) [ondansetron, reference compound]
effect on bremelanotide-induced vomiting: Vomiting could be resolved

Reference: patent publication US10286034B2, “Uses of bremelanotide in therapy for female sexual dysfunction” (Palatin Technologies, Inc., priority 2012, dated 2019)
